Source: patent US10689384B2, “Imidazo[1,2-a]quinoxalines and derivatives thereof for the treatment of cancer” (Universite de Montpellier, priority 2014, dated 2020)

Assays:
[1] = system: A2058; experiment: In vitro cytotoxicity study, inhibition of cell growth (MTT); type: cell-based; conditions: Homo sapiens, A2058, melanoma, 72 hours
Procedure: (§1) The goal of this protocol is to study the effects of the compounds on the proliferation of various human cancer cell lines in order to evaluate the EC50 and their activity in cellulo.
(§2) The cells are seeded the day before treatment in 96 well plates. Each compound concentration is tested in triplicate. A 96 well plate can contain 3 compounds.
(§3) Cell suspensions for each cancer cell line are prepared in culture medium with a specific density of the specific cell (see the following table). Then, 100 µL of cell suspension is spread per well (plate per one cell line).
(§4) Stock solutions of the tested compounds are prepared at 10 mM in 100% DMSO and stored at […].
(§5) The analysis is carried out by using the GraphPad PRISM 5.0 software.
(§6) Day 1: the cells are seeded one day before treatment with the compounds in 96 well plates. Cell suspensions for each cancer cell line are prepared with a specific density in a specific culture medium (see preceding table). Next, 100 µL of cell suspension is distributed per well (1×96 well plate per cell line).
(§7) Day 2: 24 hours later, the […] compounds or controls (DMSO) are added to the cells ([…] of a compound solution in its specific medium with a final DMSO concentration of 0.15%).
(§8) Each compound concentration is tested in triplicate (6 concentrations between 10^−9 M and 10^−5 M per compound). The cells are incubated at 37° C. for 72 hours with no new treatment.
(§9) Day 5: 15 minutes before incubation of the cells with MTT (3-[4,5-dimethylthiazol-2-yl]-2,5-diphenyltetrazolium bromide), 10% SDS is added to the control wells to obtain a final concentration of 1%. The positive control of inhibition of proliferation is 1% SDS.
(§10) Once the medium is removed, 100 µL of a solution of MTT in fresh medium is added to each well (10 μL of 10×MTT solution at 5 mg/mL in PBS +[…] of fresh medium) and the plates are incubated for 4 hours at 37° C.
(§11) The MTT reaction is quenched and the medium is homogenized by addition of […] of 10% SDS/0.01 M HCl solution placed in each well. The medium is incubated for 2 hours at 37° C. before measuring its absorbance. Absorbance is measured at 570 nm.

[2] = system: A375; experiment: as above; type: cell-based; conditions: Homo sapiens, A-375, A375, melanoma, 72 hours
Procedure: as §1, §2, §3, §4, §5, §6, §7, §8, §9, §10, §11

[3] = system: AsPC-1; experiment: as above; type: cell-based; conditions: Homo sapiens, ASPC1, AsPC-1, pancreas, 72 hours
Procedure: as §1, §2, §3, §4, §5, §6, §7, §8, §9, §10, §11

[4] = system: BxPC3; experiment: as above; type: cell-based; conditions: Homo sapiens, BXPC-3, BxPC3, pancreas, 72 hours
Procedure: as §1, §2, §3, §4, §5, §6, §7, §8, §9, §10, §11

[5] = system: CFPAC-1; experiment: as above; type: cell-based; conditions: Homo sapiens, CFPAC-1, pancreas, 72 hours
Procedure: as §1, §2, §3, §4, §5, §6, §7, §8, §9, §10, §11

[6] = system: COLO-205; experiment: as above; type: cell-based; conditions: Homo sapiens, COLO-205, colon, 72 hours
Procedure: as §1, §2, §3, §4, §5, §6, §7, §8, §9, §10, §11

[7] = system: Calu-1; experiment: as above; type: cell-based; conditions: Homo sapiens, Calu-1, lung, 72 hours
Procedure: as §1, §2, §3, §4, §5, §6, §7, §8, §9, §10, §11

[8] = system: Capan-1; experiment: as above; type: cell-based; conditions: Homo sapiens, Capan-1, pancreas, 72 hours
Procedure: as §1, §2, §3, §4, §5, §6, §7, §8, §9, §10, §11

[9] = system: HepG2; experiment: as above; type: cell-based; conditions: Homo sapiens, HepG2, liver, 72 hours
Procedure: as §1, §2, §3, §4, §5, §6, §7, §8, §9, §10, §11

[10] = system: IPC298; experiment: as above; type: cell-based; conditions: Homo sapiens, IPC-298, IPC298, melanoma, 72 hours
Procedure: as §1, §2, §3, §4, §5, §6, §7, §8, §9, §10, §11

[11] = system: LoVo; experiment: as above; type: cell-based; conditions: Homo sapiens, colon, 72 hours
Procedure: as §1, §2, §3, §4, §5, §6, §7, §8, §9, §10, §11

[12] = system: MEWO; experiment: as above; type: cell-based; conditions: Homo sapiens, melanoma, 72 hours
Procedure: as §1, §2, §3, §4, §5, §6, §7, §8, §9, §10, §11

[13] = system: PC-3; experiment: as above; type: cell-based; conditions: Homo sapiens, PC-3, prostate, 72 hours
Procedure: as §1, §2, §3, §4, §5, §6, §7, §8, §9, §10, §11

[14] = system: PF382; experiment: as above; type: cell-based; conditions: Homo sapiens, PF-382, PF382, lymphoid, 72 hours
Procedure: as §1, §2, §3, §4, §5, §6, §7, §8, §9, §10, §11

[15] = system: T-47D; experiment: as above; type: cell-based; conditions: Homo sapiens, T47D, breast, 72 hours
Procedure: as §1, §2, §3, §4, §5, §6, §7, §8, §9, §10, §11

[16] = target: T1, purified tubulin (Sus scrofa, UniProt P02550+P02554); experiment: Effect on the polymerization of purified tubulin (turbidimetry at 350 nm); type: biochemical, pig; conditions: 2.4 μM tubulin, 37° C.
T1 construct: Tubulin is prepared from pig brain; from tissue; host or cells: pig brain
T1 sequence (P02550 whole entry): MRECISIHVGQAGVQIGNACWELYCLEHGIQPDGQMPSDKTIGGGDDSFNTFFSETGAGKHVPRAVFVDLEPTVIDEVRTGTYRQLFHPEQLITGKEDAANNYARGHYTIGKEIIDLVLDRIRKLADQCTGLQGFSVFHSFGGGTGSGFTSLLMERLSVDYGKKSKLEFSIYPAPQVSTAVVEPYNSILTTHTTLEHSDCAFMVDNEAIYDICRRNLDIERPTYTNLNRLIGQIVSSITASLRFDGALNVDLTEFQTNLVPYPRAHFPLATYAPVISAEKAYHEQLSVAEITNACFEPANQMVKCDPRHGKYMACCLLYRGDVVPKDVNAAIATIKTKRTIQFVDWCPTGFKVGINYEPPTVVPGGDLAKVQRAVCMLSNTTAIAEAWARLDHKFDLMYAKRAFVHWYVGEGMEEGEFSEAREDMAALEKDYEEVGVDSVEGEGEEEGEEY
T1 sequence (P02554 whole entry): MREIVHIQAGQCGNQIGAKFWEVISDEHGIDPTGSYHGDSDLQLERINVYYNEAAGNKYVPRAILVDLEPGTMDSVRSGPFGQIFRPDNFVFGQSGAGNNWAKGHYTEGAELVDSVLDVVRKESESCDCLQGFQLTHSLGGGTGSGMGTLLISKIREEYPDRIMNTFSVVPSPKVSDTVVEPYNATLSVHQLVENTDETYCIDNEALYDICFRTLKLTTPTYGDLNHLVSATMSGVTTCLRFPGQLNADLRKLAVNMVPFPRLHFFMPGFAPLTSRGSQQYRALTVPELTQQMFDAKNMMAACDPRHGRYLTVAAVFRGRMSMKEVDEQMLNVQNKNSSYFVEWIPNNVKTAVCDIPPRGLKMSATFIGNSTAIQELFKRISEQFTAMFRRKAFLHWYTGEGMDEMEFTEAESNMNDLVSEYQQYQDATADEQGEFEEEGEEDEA
Procedure: FIG. 1. Study of the innovative effect of compounds of the selection patent on the polymerization of purified tubulin. This is a comparative study of the effect on the polymerization of purified tubulin by compounds of the selection patent compared to that of the compounds of the patent FR 2,921,927. Polymerized tubulin absorbs at 350 nm.
Tubulin is prepared from pig brain according to the purification process described by Williams and Lee (1982). Tubulin polymerization is monitored by turbidimetry at 350 nm with an MC2 spectrophotometer (Safas, Monaco) equipped with a heat-jacketed cuvette holder. The reaction mixture was prepared at 0° C., and contains PEM buffer, 25% glycerol (v/v), 1 mM GTP, and 2.4 μM tubulin. The GTP and the tubulin are added at the last minute. […] The same volume of DMSO alone was used as a negative control. The final volume of the sample is […]. The reaction is initiated by placing the cuvette in the cell compartment of the spectrophotometer thermostated at 37° C. Ice is added 45 minutes later to launch depolymerization in order to confirm the specificity of the signal.

[17] = system: human cancer cell lines; experiment: In vitro cytotoxicity study, Summarized results 2 (cell line not given); type: cell-based; conditions: Homo sapiens, Table 4, Summarized results 2; cell line not stated
Procedure: as §1, §2, §4, §5, §6, §7, §8, §9, §10, §11

With CNc1nc2ccccc2n2c(-c3cccc(OC)c3)cnc12 [EAPB0503, 1-(3-methoxyphenyl)-N-methylimidazo[1,2-a]quinoxalin-4-amine, reference compound] the EC50 [1] was 185 nM, the EC50 [2] was 383 nM and the EC50 [3] was 2800 nM. The EC50 [4] was 159 nM, the EC50 [5] was 598 nM and the EC50 [6] was 201 nM. For the same compound, the EC50 [7] was 196 nM, the EC50 [8] was 561 nM and the EC50 [9] was 1360 nM. It also gave an EC50 [10] of 469 nM, an EC50 [11] of 89 nM and an EC50 [12] of 125 nM. It also gave an EC50 [13] of 537 nM, an EC50 [14] of 205 nM and an EC50 [15] of 198 nM. The “Effect on polymerization of purified tubulin (absorbance level at 350 nm)” value [16] was “decreases the absorbance level”.

For Nc1nc2ccccc2n2c(-c3ccc(O)c(O)c3)cnc12 [EAPB02302, 1-(3,4-Dihydroxyphenyl)imidazo[1,2-a]quinoxalin-4-amine], the EC50 [1] was 13 nM, the EC50 [2] was 60 nM and the EC50 [3] was 1820 nM. The EC50 [4] was 25 nM, the EC50 [5] was 67 nM and the EC50 [6] was 44 nM. For the same compound, the EC50 [7] was 14 nM, the EC50 [8] was 206 nM and the EC50 [9] was 267 nM. For the same compound, the EC50 [10] was 75 nM, the EC50 [11] was 44 nM and the EC50 [12] was 10 nM. It also gave an EC50 [13] of 56 nM, an EC50 [14] of 29 nM and an EC50 [15] of 78 nM.

In the case of NCCNc1nc2ccccc2n2c(-c3ccc(O)c(O)c3)cnc12 [EAPB 02306, 4-(4-((2-Aminoethyl)amino)imidazo[1,2-a]quinoxalin-1-yl)benzene-1,2-diol], the IC50 [17] is reported as 1280 nM.

For Oc1ccc(-c2cnc3c(N4CCNCC4)nc4ccccc4n23)cc1O [EAPB0 2308, 4-(4-(Piperazin-1-yl)imidazo[1,2-a]quinoxalin-1-yl)benzene-1,2-diol], the IC50 [17] was over 10000 nM.

Work on NCCCCCCNc1nc2ccccc2n2c(-c3ccc(O)c(O)c3)cnc12 [EAPB 02307, 4-(4-((6-Aminohexyl)amino)imidazo[1,2-a]quinoxalin-1-yl)benzene-1,2-diol] yielded an IC50 [17] of 5690 nM.

COc1ccc(-c2cnc3c(NC(C)C(=O)OC(C)(C)C)nc4ccccc4n23)cc1OC (stereo not drawn) [EAPB 02218] gave an IC50 [17] of over 10000 nM.

Work on CNc1nc2cc(C(F)(F)F)ccc2n2c(-c3ccc(O)c(O)c3)cnc12 [EAPB 02303-7a, 4-(4-(Methylamino)-7-(trifluoromethyl)imidazo[1,2-a]quinoxalin-1-yl)benzene-1,2-diol] yielded an IC50 [17] of 6910 nM.

Work on COc1ccc(-c2cnc3c(NC(CC(C)C)C(=O)OC(C)(C)C)nc4ccccc4n23)cc1OC (stereo not drawn) [EAPB 02222] yielded an IC50 [17] of over 10000 nM.

With CNc1nc2cc(C#N)ccc2n2c(-c3ccc(O)c(O)c3)cnc12 [EAPB 02303-7c] the IC50 [17] was 6390 nM.

CNc1nc2ccccc2n2c(Br)cnc12 [CPA 8, 1-Bromo-N-methylimidazo[1,2-a]quinoxalin-4-amine] was tested, and the IC50 [17] was 2350 nM.

O=C(CNc1nc2ccccc2n2c(-c3ccc(O)c(O)c3)cnc12)NC(CO)(CO)CO [EAPB 02310] showed an IC50 [17] of over 10000 nM.

With CNc1nc2cc(OC(F)(F)F)ccc2n2c(-c3ccc(OC)c(OC)c3)cnc12 [EAPB 02203-7b, 1-(3,4-Dimethoxyphenyl)-N-methyl-7-(trifluoromethoxy)imidazo[1,2-a]quinoxalin-4-amine] the IC50 [17] was 3490 nM.

COc1ccc(-c2cnc3c(NCCCCCCNC(=O)OC(C)(C)C)nc4ccccc4n23)cc1OC [EAPB 02212, tert-Butyl (6-((1-(3,4-dimethoxyphenyl)imidazo[1,2-a]quinoxalin-4-yl)amino)hexyl)carbamate] gave an IC50 [17] of over 10000 nM.
